Assay results as given in patent US4616025A, “Thiazolidine derivatives, process for the preparation and pharmaceutical compositions thereof” (Richter Gedeon Vegyeszeti Gyar RT, priority 1983, dated 1986).
Entries after “also recorded” stand apart in the source; their conditions may differ. Like-named read-outs stand apart in the source and are kept apart here.

How the values were obtained:
[1] = test system: gastric necrosis induced by absolute alcohol; test: Gastric necrosis induced by absolute alcohol (cytoprotection); assay type: in vivo, rat (female H-Wistar)
Description: Gastric necrosis induced by absolute alcohol
Water was allowed ad libitum. The compounds to be tested were administered orally, 30 minutes prior to the administration of 0.5 ml of ethanol/100 g of body weight through a canula. Two hours later the animals were killed by overdosing ether. Stomachs were removed and opened along the major curvature. […] Degree of the cytoprotection was expressed in % related to the control.

[2] = test system: gastric acid secretion; test: Gastric acid secretion in Shay-rats (pylorus ligation, 4 hours); assay type: in vivo, rat (female H-Wistar)
Description: The method was first described by Shay et al in 1945 (Gastroenterology 56, 5-13, 1945). Female H-Wistar rats (120-150 g) were gasted for 24 hours. Water was allowed ad libitum. The pylorus of the animals was ligated in slight ether narcosis. […] 4 hours after treatment the animals were killed by an overdose of ether. The stomach was excised and cut along the large curvature. The volume and the pH of the contents were determined, in certain cases the HCl production was determined by titration.

[3] = test system: indomethacin-induced intestinal ulceration; test: Indomethacin-induced fatal intestinal ulceration (15 mg/kg p.o.), inflation technique; assay type: in vivo, rat (female H-Wistar); details: for ED100: Rattus norvegicus, po
Description: Indomethacin-induced intestinal ulceration
Of the non-steroidal antiinflammatory agents indomethacin has not only a gastric-ulcer inducing side-effect but may also cause serious intestinal ulceration. Depending on the dose, the intestinal ulceration may be fatal, peritonitis due to intestinal perforations kills the animals.
(a) Indomethacin-induced fatal intestinal ulceration
Non-fasted, female H-Winstar rats, weighing 120-150 g each were treated orally with a 15 mg/kg dose of indomethacin (in Tween 80 suspension). […] Under these conditions it requires about 48 to 72 hours to detect intenstinal ulceration.
(§1) To evaluate the development of intestinal ulcers the so-called inflation technique by Ezer and Szporny (J. Pharm. Pharmacol. 27, 866 (1975)) was employed. By this method the progress of ulceration can be monitored quantitatively. The tensile strength of the intestinal wall expressed in mmHg weakens gradually parallel with the progress of ulceration.

[4] = test system: ulcer; test: Anti-ulcer activity in general (pharmacological tests); assay type: in vivo; details: compared with cimetidine
Text: The pharmacological activity of the new compounds has been investigated by the following methods: […]

[5] = Toxicological studies
Description: For intravenous administration the compound was dissolved in dimethyl formamide.

[6] = test system: gastric ulcers induced by indomethacin; test: Gastric ulcers induced by a 20 mg/kg oral dose of indomethacin; assay type: in vivo; details: 20 mg/kg oral dose of indomethacin
[7] = test system: aspirin-induced gastric ulcers; test: Aspirin-induced stomach ulcer; assay type: in vivo, rat (female H-Wistar)
Description: It is known that the non-steroidal antiinflammatory agents induce gastointestinal ulceration to certain extent (Drugs and Peptic Ulcer, Ed. Pfeiffer, CRC Press, New York 1982). To test anti-ulcer compounds the so-called Aspirin-induced ulcer model is widely used. Female H-Wistar rats weighing 120-150 g each were fasted for 24 hours. Water was allowed ad libitum. The stomach ulcer was induced by oral administration of 100 mg/kg Aspirin (in Tween 80 suspension). The test drug was given simultaneously with the administration of Aspirin, orally. The animals were killed by an overdose of ether, 4 hours after treatment. The stomach was excised and cut along the large curvature. The contents were slightly washed and the haemorrhagic lesions in the glandular surface were counted. When evaluating the test results, the number of ulcers per stomach or the ulcer-free animals were determined.

[8] = Solubility in water
[9] = test system: indomethacin-induced non-fatal intestinal ulceration; test: Indomethacin-induced (7.5 mg/kg p.o.) non-fatal intestinal ulceration, post-treatment, inflation technique; assay type: in vivo, rat (H-Wistar); details: for Non-fatal intestinal ulceration post-treatment, in words: post-treatment 4, 24 and 48 hours after indomethacin 7.5 mg/kg p.o.
Description: as §1
(b) Indomethacin-induced non-fatal ulceration
Non-fasted H-Wistar rats weighing 120 to 150 g each were administered 7.5 mg/kg indomethacin orally, to induce non-fatal intestinal ulceration. 4, 24 and 48 hours, respectively, after the indomethacin treatment the animals were treated with the test material orally. The animals were killed 24 hours after the last treatment and 72 hours after the ulcer-induction performed with indomethacin, respectively. Ulceration was evaluated by the inflation technique.

[10] = test system: intestinal ulceration induced by indomethacin; details: literature; cited from earlier work
[11] = test system: formation of ulcers; details: cited from earlier work
[12] = 10 mg/kg i.p., 15 min. prior to operation, n=5
[13] = 10 mg/kg s.c., 15 min prior to operation, n=5
[14] = 10 mg/kg, 15 min prior to operation, n=5
[15] = indomethacin 15 + 15 mg/kg p.o.
[16] = indomethacin 15 + 25 mg/kg p.o.
[17] = indomethacin 15 + 50 mg/kg p.o.
[18] = Aspirin 100 + 1.5 mg/kg p.o., n=10
[19] = Aspirin 100 + 3.0 mg/kg p.o., n=17
[20] = Aspirin 100 + 6.0 mg/kg p.o., n=17
[21] = Aspirin 100 + 12.0 mg/kg p.o., n=14
[22] = Aspirin 100 + 25.0 mg/kg p.o., n=17
[23] = Aspirin (control) 100 mg/kg p.o., n=20
[24] = indomethacin 15 mg/kg p.o. alone, n=16

## N#CN=C1SCCN1Cc1ccccc1 [Compound A, 3-Benzyl-2-cyanimino-thiazolidine]
[1]; 1.5 mg/kg p.o.
  Cytoprotection: 37%
  Length of average lesion: 52.5 ± 19 mm/stomach
[1]; 3.0 mg/kg p.o.
  Cytoprotection: 58%
  Length of average lesion: 34.8 ± 10 mm/stomach
[1]; 6.0 mg/kg p.o.
  Cytoprotection: 64%
  Length of average lesion: 29.9 ± 9 mm/stomach
[1]; 12.0 mg/kg p.o.
  Cytoprotection: 60%
  Length of average lesion: 32.9 ± 5 mm/stomach
[1]; 25.0 mg/kg p.o.
  Cytoprotection: 78%
  Length of average lesion: 18.0 ± 8 mm/stomach
[1]; Rattus norvegicus, po, 30 minutes prior to ethanol
  ED50: 2.8 mg/kg
[1]; rat, in vivo
  Absolute alcohol-induced gastric necrosis, in words: effective against the gastric necrosis induced by absolute alochol; also recorded: effective also in the absolute alcohol necrosis test
[2]; 1.25 mg/kg i.p., n=5
  Acid secretion: 436 μmol HCl/100 g b.w.
[2]; 2.5 mg/kg i.p., n=10
  Acid secretion: 358 μmol HCl/100 g b.w.
  Inhibition of acid secretion: 17%
[2]; 5.0 mg/kg i.p., n=10
  Acid secretion: 301 μmol HCl/100 g b.w.
  Inhibition of acid secretion: 30%
[2]; [12]
  Gastric acid secretion (volume): 2.5 ml/100 g, b.w.
  Gastric acid secretion, pH: 3.7
  Gastric acid secretion, vol. inhibition: 42%
[2]; 10.0 mg/kg i.p., n=20
  Inhibition of acid secretion: 100%
[2]; [13]
  Gastric acid secretion (volume): 2.8 ml/100 g, b.w.
  Gastric acid secretion, pH: 1.5
  Gastric acid secretion, vol. inhibition: 35%
[2]; [14]
  Gastric acid secretion (volume): 2.3 ml/100 g, b.w.
  Gastric acid secretion, pH: 4.1
  Gastric acid secretion, vol. inhibition: 47%
[2]; 25.0 mg/kg i.p., n=5
  Inhibition of acid secretion: 100%
[2]; Rattus norvegicus, ip, 4 h, i.p., Shay rats, read-out: ED50, gastric acid secretion inhibition
  ED50: 5.3 mg/kg
[2]; Table 1, i.p.
  Gastric acid secretion decreasing effect, in words: dose-dependent gastric acid secretion decreasing effect
[2]; administered orally
  Gastric acid secretion inhibition on oral administration, in words: effectively inhibits the gastric acid secretion also when administered orally
[2]; comparison of i.p., s.c. and p.o. data
  Oral absorption: good oral absorption
[3]; simultaneous with indomethacin 15 mg/kg, read-out: ED100
  ED100: 50 mg/kg
[3]; [15]
  Intestinal wall resistency in % of normal: 52 % of normal
  T.s. of intestinal wall 72 hours after treatment: 120 ± 20 mm Hg
[3]; [16]
  Intestinal wall resistency in % of normal: 83 % of normal
  T.s. of intestinal wall 72 hours after treatment: 192 ± 18 mm Hg
[3]; [17]
  Intestinal wall resistency in % of normal: 97 % of normal
  T.s. of intestinal wall 72 hours after treatment: 225 ± 6 mm Hg
[3]; simultaneous administration, indomethacin 15 mg/kg p.o.
  Indomethacin-induced intestinal ulceration, in words: dose-dependent inhibiting effect; also recorded: inhibits the indomethacin-induced intestinal ulceration
[4]
  Spectrum of activity, in words: wider spectrum of activity than for example cimetidine
[5]; 100 mg/kg, route not given, within 3 days
  Sickness / death: sickness of the test animals but no death occurs
[5]; 250 mg/kg, within 2 weeks
  Death: no death is observed
[5]; 1500 mg/kg i.p.
  Time to death of the animals: ≤ 30 min
[5]; 1500 mg/kg oral
  Behavior and food consumption of animals: normal
[5]; 1500 mg/kg oral, in the next week
  Further deaths: no further deaths are observed
[5]; 1500 mg/kg oral, within 24 hours
  Death of animals within 24 hours: 3 animals out of 10
[5]; first toxicological studies
  Therapeutic index: high therapeutic index
[6]
  Indomethacin-induced gastric ulcers, in words: effectively inhibited
[7]; [18]
  Number of ulcers/stomach: 9.5
  Ulcer inhibition: 40%
  Ulcer-free animals: 0%
[7]; [19]
  Number of ulcers/stomach: 6.8
  Ulcer inhibition: 57%
  Ulcer-free animals: 23%
[7]; [20]
  Number of ulcers/stomach: 4.7
  Ulcer inhibition: 71%
  Ulcer-free animals: 29%
[7]; [21]
  Number of ulcers/stomach: 2.2
  Ulcer inhibition: 86%
  Ulcer-free animals: 66%
[7]; [22]
  Number of ulcers/stomach: 2.3
  Ulcer inhibition: 85%
  Ulcer-free animals: 41%
[7]; Rattus norvegicus, po, 4 h, simultaneous administration
  ED50: 2.1 mg/kg
[7]; simultaneous administration, depending on the dose
  Aspirin-induced gastric ulceration, in words: inhibits the formation of the aspirin-induced gastric ulceration
[8]
  Solubility in water: insoluble in water
[9]; 7.5 + 3 × 25 mg/kg p.o., 4, 24, 48 hours after indomethacin
  T.s. of intestinal wall 72 hours after indomethacin treatment: 176 ± 20 mm Hg
[9]; 7.5 + 3 × 50 mg/kg p.o., 4, 24, 48 hours after indomethacin
  T.s. of intestinal wall 72 hours after indomethacin treatment: 249 ± 4 mm Hg
[9]
  Non-fatal intestinal ulceration post-treatment, in words: can normalize the tensile strength of the intestine wall

## CC(=O)Oc1ccccc1C(=O)O [Aspirin, reference compound]
[7]; [23]
  Number of ulcers/stomach: 15.7 ± 3.0
  Ulcer-free animals: 0%

## CC(C)[N+](C)(CCOC(=O)C1c2ccccc2Oc2ccccc21)C(C)C [Propanthelin]
[10]
  Indomethacin-induced intestinal ulceration, in words: cannot prevent indomethacin-induced intestinal ulceration

## CN1CCN(CC(=O)N2c3ccccc3C(=O)Nc3cccnc32)CC1 [pirenzepine, 5,11-dihydro-11-[(4-methyl-1-piperazinyl)-acetyl]-6H-pyrido[2,3-b][1,4] benzodiazepine-6-one]
[11]; compared to atropine
  Inhibition of the formation of ulcers, in words: inhibits the formation of ulcers to the same extent as atropine
[11]; in vivo
  Other anticholinergic effects (e.g. inhibition of peristalsis, accommodation disturbances of eye, inhibition of salivation): devoid of other anticholenergic effects

## O=C(O)c1ccccc1O [Na--salicylate, reference compound]
[3]
  ED100: 50 mg/kg
[3]; [16]
  Intestinal wall resistency in % of normal: 57 % of normal
  T.s. of intestinal wall 72 hours after treatment: 132 ± 17 mm Hg
[3]; [17]
  Intestinal wall resistency in % of normal: 100 % of normal
  T.s. of intestinal wall 72 hours after treatment: 231 ± 5 mm Hg

## COc1ccc2c(c1)c(CC(=O)O)c(C)n2C(=O)c1ccc(Cl)cc1 [Indomethacin, reference compound]
[3]; [24]
  Intestinal wall resistency in % of normal: 20 % of normal
  T.s. of intestinal wall 72 hours after treatment: 46 ± 12 mm Hg
[9]; indomethacin 7.5 mg/kg p.o. alone, n=32, group B
  T.s. of intestinal wall 72 hours after indomethacin treatment: 185 ± 11 mm Hg

## C[N+]1(C)[C@@H]2CC[C@H]1CC(OC(=O)C1c3ccccc3Oc3ccccc31)C2.[Br-] (stereo partly shown) [Gastrixon]
[10]
  Indomethacin-induced intestinal ulceration, in words: cannot prevent indomethacin-induced intestinal ulceration

## CNC(=C[N+](=O)[O-])NCCSCc1ccc(CN(C)C)o1 [ranitidine]
[9]
  Non-fatal intestinal ulceration post-treatment, in words: ineffective
